Values quoted from earlier work in patent US11406602B2, “Substances for reducing occurrence of major cardiac events comprising red yeast rice extract and omega-3 polyunsaturated fatty acid or derivative thereof” (NORDIC NATURALS, INC., priority 2007, dated 2022).

Key:
[1] = prior art description of lovastatin
patients = conditions: 20 mg/day for 24 weeks
[2] = 10, 20, and 40 mg/day

For `CC[C@H](C)C(=O)O[C@H]1C[C@@H](C)C=C2C=C[C@H](C)[C@H](CC[C@@H]3C[C@@H](O)CC(=O)O3)[C@H]21` [Lovastatin, lovastatin], the decrease in triglycerides (slight decreases) is given as 5-10%, the “increase in high density lipoproteins (HDL)” value (slight to moderate increases) is given as 10-20% and the water solubility [1] is given as “water insoluble”. The “fall in total cholesterol” value (patients) was 26%, the fall in triglycerides (patients) was 12% and the “reduction in LDL” value [2] was 21-32%. For the same molecule, the “reduction in total cholesterol” value [2] was 16-24% and the reduction in triglycerides ([2]; higher reduction at lower dosage) was 10 to 6%.
